SMILES strings stand for the structures. Where a SMILES comes first, the peptide text is derived from it. [ ]: non-standard residue; d: D form. Pen = CC(C)(S)[C@H](N)C(=O)O; hLeu = CC(C)CC[C@H](N)C(=O)O; hCys = N[C@@H](CCS)C(=O)O; Nle = CCCC[C@H](N)C(=O)O; Nva = CCC[C@H](N)C(=O)O

T2 sequence (Q99814 240-350 limits assumed): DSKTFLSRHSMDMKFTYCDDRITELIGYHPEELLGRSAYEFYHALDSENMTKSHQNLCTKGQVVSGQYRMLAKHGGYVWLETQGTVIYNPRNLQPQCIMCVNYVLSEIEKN
T1 sequence (Q16665 238-349 limits assumed): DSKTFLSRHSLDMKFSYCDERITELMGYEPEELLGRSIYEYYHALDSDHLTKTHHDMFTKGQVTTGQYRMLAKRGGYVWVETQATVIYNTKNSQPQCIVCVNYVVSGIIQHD

The first experiment concerns the target T1, HIF-1α PAS-B domain (Homo sapiens, UniProt Q16665).
T1 construct: made in house
In words: MST binding to the PAS-B domain of HIF-1α. Particulars: MST; mean ± SEM, n = 2 (n = 1 for most C1 analogues, n = 3 in Figure S2); read-out: KD for HIF-1α PAS-B. The procedure: (§1) All reagents were purchased from Fisher Scientific or Sigma Aldrich UK unless specified otherwise.
(§2) Restriction enzymes and microbiology reagents were purchased from New England Biolabs Inc., Fisher Scientific (UK) or Promega (UK) and were used as directed by the manufacturer. Primers and oligonucleotides were synthesised by Integrated DNA Technologies (UK). DNA sequencing was carried out by Eurofins MWG Operon (Germany).
(§3) Construction of the RTHS and SICLOPPS library, screening, purification of recombinant HIF proteins, and the PLA was conducted as previously described in Miranda et al., J. Am. Chem. Soc., 2013, 135(28); […]
(§4) Protein labelling with MST dye
(§5) Protein was buffer exchanged from storage buffer into labelling buffer (0.1 M NaHCO3, pH 8.5) using a PD spintrap G-25 column (GE healthcare). The protein concentration was then adjusted to 20 µM.
(§6) The commercially sourced MST dye (NanoTemper) was prepared as a 470 µM solution in DMSO, which was then further diluted to 60 µM using labelling buffer. To the protein solution was added an equal volume of dye solution, and the labelling reaction was left for 1 hour in the dark at room temperature.
(§7) The labelled protein was separated from unreacted dye by elution through a PD minitrap G-25 column (GE healthcare). Labelled protein was then aliquoted and stored at -80 °C. Extent of labelling was measured by the absorbance obtained using the UV-vis mode on a NanoDrop ND-1000 Spectrophotometer (NanoDrop Technologies, USA).
(§8) Labelled protein was thawed on ice and diluted to 50 nM in assay buffer containing 50 mM Tris pH 8.0, 150 mM NaCl, 5% (v/v) glycerol, 1 mM TCEP and 0.05% TWEEN-20. The protein solution was then centrifuged at 12000 rpm for 15 minutes at 4 °C and left on ice. Compounds were prepared and serially diluted in DMSO at 10x assay concentration, before diluting to 2x assay concentration in assay buffer.
(§9) The 2x compound solutions were then mixed 1:1 (v/v) with 50 nM labelled protein solution and left to incubate for 1 hour at room temperature. Solutions were then loaded into Monolith NT.115 Premium Capillaries (NanoTemper) and placed in the sample tray. MST experiments were carried out
For orientation: Kd means the concentration at which binding is half-saturated. Regarding `CC[C@H](C)[C@@H]1NC(=O)[C@H](CC(C)C)NC(=O)[C@H](CCCNC(=N)N)NC(=O)[C@H](CS)NC(=O)[C@H](Cc2ccccc2)NC(=O)[C@H](CC(C)C)NC1=O` [L, cyclo-CRLILF] (cyclo(CRLILF)), the Kd was 11.4 ± 0.4 µM.

As for `CC[C@H](C)[C@@H]1NC(=O)[C@H](CC(C)C)NC(=O)[C@H](CCCNC(=N)N)NC(=O)[C@H](CCSC)NC(=O)[C@H](Cc2ccccc2)NC(=O)[C@H]([C@@H](C)CC)NC1=O` [M, cyclo-MRLIIF] (cyclo(FMRLII)), the Kd is above 100 µM.

For `CCCC[C@@H]1NC(=O)[C@H]([C@@H](C)CC)NC(=O)[C@H](CC(C)C)NC(=O)[C@H](CCCNC(=N)N)NC(=O)[C@H](CS)NC(=O)[C@H](Cc2ccccc2)NC1=O` [Nle, cyclo-CRLINleF] (cyclo(CRLI[Nle]F)), the Kd stood at 7.5 ± 0.9 µM. On the same count and under the same terms, next, `CCC[C@@H]1NC(=O)[C@H]([C@@H](C)CC)NC(=O)[C@H](CC(C)C)NC(=O)[C@H](CCCNC(=N)N)NC(=O)[C@H](CS)NC(=O)[C@H](Cc2ccccc2)NC1=O` [Nva, cyclo-CRLINvaF] (cyclo(CRLI[Nva]F)): 22.1 ± 2.6 µM; `CC[C@H](C)[C@@H]1NC(=O)[C@H](CC(C)C)NC(=O)[C@H](CCCNC(=N)N)NC(=O)[C@H](CS)NC(=O)[C@H](Cc2ccc(O)cc2)NC(=O)[C@H]([C@@H](C)CC)NC1=O` [OH, cyclo-CRLIIY] (cyclo(CRLIIY)): 7.4 ± 0.1 µM; `CC[C@H](C)[C@@H]1NC(=O)[C@H](CC(C)C)NC(=O)[C@H](CCCNC(=N)N)NC(=O)[C@H](C(C)(C)S)NC(=O)[C@H](Cc2ccccc2)NC(=O)[C@H]([C@@H](C)CC)NC1=O` [Pen, cyclo-PenRLIIF] (cyclo(F[Pen]RLII)): 5.7 ± 0.9 µM. The same measure, in the same setting: next, `CC[C@H](C)[C@@H]1NC(=O)[C@H](CC(C)C)NC(=O)[C@H](CCCNC(=N)N)NC(=O)[C@H](CO)NC(=O)[C@H](Cc2ccccc2)NC(=O)[C@H]([C@@H](C)CC)NC1=O` [S, cyclo-SRLIIF] (cyclo(FSRLII)): above 100 µM. For `CC[C@H](C)[C@@H]1NC(=O)[C@H](CC(C)C)NC(=O)[C@H](CCCNC(=N)N)NC(=O)[C@H]([C@@H](C)O)NC(=O)[C@H](Cc2ccccc2)NC(=O)[C@H]([C@@H](C)CC)NC1=O` [T, cyclo-TRLIIF] (cyclo(FTRLII)), the Kd is above 100 µM. On the same count and under the same terms, then `CC[C@H](C)[C@@H]1NC(=O)[C@H](CC(C)C)NC(=O)[C@H](CCCNC(=N)N)NC(=O)[C@H](CS)NC(=O)[C@H](Cc2ccccc2)NC(=O)[C@H](C(C)C)NC1=O` [V, cyclo-CRLIVF] (cyclo(CRLIVF)), with 15.9 ± 0.3 µM; and `CC[C@H](C)[C@@H]1NC(=O)[C@H](CC(C)C)NC(=O)[C@H](CCCNC(=N)N)NC(=O)[C@H](C)NC(=O)[C@H](Cc2ccccc2)NC(=O)[C@H]([C@@H](C)CC)NC1=O` [cyclo-ARLIIF] (cyclo(ARLIIF)), with above 100 µM.

Consider `CC[C@H](C)[C@@H]1NC(=O)[C@H](CC(C)C)NC(=O)[C@H](C)NC(=O)[C@H](CS)NC(=O)[C@H](Cc2ccccc2)NC(=O)[C@H]([C@@H](C)CC)NC1=O` [cyclo-CALIIF] (cyclo(ALIIFC)), for which the Kd came to 30.6 ± 0.3 µM. Same read-out and setting: next, `CC[C@H](C)[C@@H]1NC(=O)[C@H](CC(C)C)NC(=O)[C@H](CCCNC(=N)N)NC(=O)[C@H](CCS)NC(=O)[C@H](Cc2ccccc2)NC(=O)[C@H]([C@@H](C)CC)NC1=O` [hC, cyclo-hCRLIIF] (cyclo(F[hCys]RLII)): above 50 µM; `CC[C@H](C)[C@@H]1NC(=O)[C@H](CC(C)C)NC(=O)[C@H](CCCNC(=N)N)NC(=O)[C@H](CS)NC(=O)[C@H](Cc2ccccc2)NC(=O)[C@H](CCC(C)C)NC1=O` [hL, cyclo-CRLIhLF] (cyclo(CRLI[hLeu]F)): 4.4 ± 1.3 µM.

Another experiment addresses T2, HIF-2α PAS-B domain (Homo sapiens, UniProt Q99814).
T2 construct: made in house
In words: MST binding to the PAS-B domain of HIF-2α. The settings on record: MST; mean (n = 2) ± SEM. Here is the method:
as §1, §2, §3, §4, §5, §6, §7, §8, §9
`CC[C@H](C)[C@@H]1NC(=O)[C@H](CC(C)C)NC(=O)[C@H](CCCNC(=N)N)NC(=O)[C@H](C)NC(=O)[C@H](Cc2ccccc2)NC(=O)[C@H]([C@@H](C)CC)NC1=O` [cyclo-ARLIIF] (cyclo(ARLIIF)) showed a Kd above 100 µM. As to `CC[C@H](C)[C@@H]1NC(=O)[C@H](CC(C)C)NC(=O)[C@H](C)NC(=O)[C@H](CS)NC(=O)[C@H](Cc2ccccc2)NC(=O)[C@H]([C@@H](C)CC)NC1=O` [cyclo-CALIIF] (cyclo(ALIIFC)), the Kd is 12.5 ± 0.4 µM. On the same count and under the same terms, next, `CC[C@H](C)[C@@H]1NC(=O)[C@H](CC(C)C)NC(=O)[C@H](CCCNC(=N)N)NC(=O)[C@H](CS)NC(=O)[C@H](Cc2ccccc2)NC(=O)[C@H]([C@@H](C)CC)NC1=O` [cyclo-CRLIIF] (cyclo(CRLIIF)): 10.9 ± 1.1 µM.

Values taken from paper PMC10996005, “Identification and Development of Cyclic Peptide Inhibitors of Hypoxia Inducible Factors 1 and 2 That Disrupt Hypoxia-Response Signaling in Cancer Cells” (Journal of the American Chemical Society, 2024).
